Tested on: amyloid precursor protein (APP) proteolysis
Experiment: Repressor Release Assay (RRA)
Assay type: cell-based
Conditions: Conc 10 μg/mL; luciferase activity over diluent control; read-out: APPI Fold Increase
Protocol: The beta amyloid inhibitory activity of many of the compounds of the present invention has been determined using the Repressor Release Assay (RRA). See, Table 23 below. A compound is considered active in RRA if it leads to at least a 1.5 fold increase in luciferase activity at 20 μM and is non-toxic.
The compounds generated as described in Examples 1 through 220 were tested in the RRA in accordance with published techniques [Shuey, D. J., Sheiffele, P., Jones, D., Cockett, M. I., and Quinet, E. M. (1999), “Repressor release: a useful tool for monitoring amyloid precursor protein (APP) proteolysis in mammalian cells”, Society for Neuroscience Abstracts, Vol. 25, 29th Annual Meeting of Society for Neuroscience, Miami Beach, Fla., Oct. 23-28, 1999]. Briefly, this assay is performed as follows.
CHO-K1 cells are cultured in whole DMEM media (DMEM—High Glucose with 10% fetal bovine serum, 1% Non-essential Amino Acids, and 1% Penicillin-Streptomycin) at 37° C. with 5% CO2. Two million cells are plated into 10-cm dishes 24 hrs prior to transfection.
Transient transfections are completed as recommended by Gibco BRL using their Lipofectamine Plus system. First, 6 μg of pRSVO-luc and 6 μg of APP-lacI construct DNA are added to 460 μL Opti-Mem transfection media and incubated with 30 μL Plus reagent for 15 minutes. Then, a lipid mixture of 40 μL Lipofectamine reagent and 460 μL Opti-Mem transfection media is incubated with the DNA-Plus reagent mixture for 15 minutes. During the DNA-lipid incubation, the CHO-K1 cells are washed once and covered in 5.0 mL DMEM media without Penicillin-Streptomycin. The DNA-lipid preparation is then layered onto these cells and incubated at 37° C. overnight.
One and one half million transfected cells per well (100 μL total volume) are plated into sterile, opaque Packard 96-well Cultur-Plates in clear DMEM whole media (DMEM—without phenol red) and incubated at 37° C. with 5% CO2 for 3-5 hours.
Compounds are diluted using two different protocols; one protocol is used for compounds supplied neat (weighed powder in vial) and the other protocol is used for compounds supplied in solution (20 mM in DMSO in 96-well plates). For both protocols, 25 mM Hepes and 25 mM Hepes/1% DMSO are prepared fresh to be used as diluent. The Hepes/DMSO is used as the diluent control on all experimental plates.
The following table depicts the steps for compound dilution (please note that the last step is the addition of compound to cells/media in tissue culture plate):
Because some compounds arrive in 96-well format at 20 mM, the following represents the protocol for their dilution (note that an average molecular weight of these compounds was used to calculate these dilutions and as above, the last step is the addition of compound to cells/media in tissue culture plate):
Once compounds are diluted, they are applied in duplicate on cells in tissue culture plates (prepared above). Cells are incubated with compound at 37° C. with 5% CO2 for an additional 36-48 hours.
Luciferase assays (LucLite reagent, Packard) are performed and are read on a Packard TopCount instrument. Media is removed from each 96-well plate and replaced with 100 μL PBS per well (with Mg^2+ and Ca^2+). An equal volume (100 μL) of the LucLite lysis/substrate buffer is added to each well and the plates are sealed and mixed in the dark on a rotary shaker for 15-30 minutes at room temperature. Luciferase readings are then taken on the TopCount instrument. Measurements are expressed as relative light units (RLU) and are calculated and analyzed in MS Excel as follows.
A compound is considered active in RRA if it leads to at least a 1.5 fold increase in luciferase activity at 20 μM and is non-toxic, as determined by loss of signal (≦0.75 fold increase). Fold increase is the amount of luciferase activity (measured in relative light units) over diluent control. SEM represents the standard error of the mean for fold increase (not shown).

Row | Structure (SMILES) | fold induction at 10 µg/mL
1 | CC[C@H](C)[C@H](NS(=O)(=O)c1ccc(Cl)s1)C(O)(c1ccccc1)c1ccccc1 [Example 164, 5-chloro-N-{(S,S)-1-[hydroxy(diphenyl)methyl]-2-methylbutyl}thiophene-2-sulfonamide] | 1.72
2 | CC[C@H](C)[C@H](NS(=O)(=O)c1ccc(Cl)s1)C(O)C=C(C)C (stereo partly drawn) [Example 132, 5-chloro-N-{(S)-2-hydroxy-4-methyl-1-[(S)-1-methylpropyl]pent-3-enyl}thiophene-2-sulfonamide] | 1.68
3 | C=CCCC(O)(CCC=C)[C@@H](NS(=O)(=O)c1ccc(Br)s1)[C@@H](C)CC [Example 176, 5-bromo-N-{(S)-2-but-3-enyl-2-hydroxy-1-[(S)-1-methylpropyl]hex-5-enyl}thiophene-2-sulfonamide] | 1.52
4 | C=CCC(O)(CC=C)[C@@H](NS(=O)(=O)c1ccc(Cl)s1)[C@@H](C)CC [Example 165, N-{(S)-2-allyl-2-hydroxy-1-[(S)-1-methylpropyl]pent-4-enyl}-5-chlorothiophene-2-sulfonamide] | 1.73
5 | C=CC(O)[C@@H](NS(=O)(=O)c1cccs1)[C@@H](C)CC (stereo partly drawn) [Example 146, N-{(S)-2-hydroxy-1-[(S)-1-methylpropyl]but-3-enyl}thiophene-2-sulfonamide] | 1.83
6 | CC[C@H](C)[C@H](NS(=O)(=O)c1ccc(Cl)s1)C(O)(c1ccc(Cl)cc1)c1ccc(Cl)cc1 [Example 167, N-{(S,S)-1-[bis(4-chlorophenyl)(hydroxy)methyl]-2-methylbutyl}-5-chlorothiophene-2-sulfonamide] | 3.42
7 | C=CCCC(O)[C@@H](NS(=O)(=O)c1ccc(Cl)s1)[C@@H](C)CC (stereo partly drawn) [Example 137, 5-chloro-N-{(S)-2-hydroxy-1-[(S)-1-methylpropyl]hex-5-enyl}thiophene-2-sulfonamide] | 1.96
8 | CCCCCC(O)[C@@H](NS(=O)(=O)c1cccs1)[C@@H](C)CC (stereo partly drawn) [Example 142, N-{(S)-2-hydroxy-1-[(S)-1-methylpropyl]heptyl}thiophene-2-sulfonamide] | 3.59
9 | CC(c1ccccc1)C(CO)NS(=O)(=O)c1ccc(Br)s1 (racemic) [Example 15, 5-bromo-N-[1-(hydroxymethyl)-2-phenylpropyl]thiophene-2-sulfonamide] | 3.08
10 | CC[C@H](C)[C@H](NS(=O)(=O)c1ccc(Cl)s1)C(O)c1ccc(SC)cc1 (stereo partly drawn) [Example 138, 5-chloro-N-((S,S)-1-{hydroxy[4-(methylthio)phenyl]methyl}-2-methylbutyl)thiophene-2-sulfonamide] | 3.54

Same assay, conditions: Conc 20 μg/mL; luciferase activity over diluent control

Row | Structure (SMILES) | APPI Fold Increase [fold]
11 | O=S(=O)(NC1(CO)Cc2ccccc2C1)c1ccc(Br)s1 [Example 183] | 3.7
12 | O=S(=O)(NC1(CO)CCc2ccccc21)c1ccc(Cl)s1 (centres unmarked) [Example 179] | 8.3

Same assay, conditions: Conc 20 μg/mL; luciferase activity over diluent control; read-out: APPI Fold Increase

Row | Structure (SMILES) | fold induction at 20 µg/mL
13 | C[C@H](OCc1ccccc1)[C@@H](CO)NS(=O)(=O)c1ccc(Cl)s1 [Example 102, N-[(R,S)-2-(benzyloxy)-1-(hydroxymethyl)propyl]-5-chlorothiophene-2-sulfonamide] | 1.6
14 | CCCCCC[C@@H](C)[C@@H](CO)NS(=O)(=O)c1ccc(Cl)s1 [Example 29, 5-chloro-N-[(1S,2R)-1-(hydroxymethyl)-2-methyloctyl]thiophene-2-sulfonamide] | 2.6
15 | CCCCCC[C@H](CC)[C@@H](CO)NS(=O)(=O)c1ccc(Br)s1 [Example 78B, 5-bromo-N-[(1S,2S)-2-ethyl-1-(hydroxymethyl)octyl]thiophene-2-sulfonamide] | 23
16 | CCCC(CO)NS(=O)(=O)c1ccc(Cl)s1 (racemic) [Example 97, 5-chloro-N-[1-(hydroxymethyl)butyl]thiophene-2-sulfonamide] | 1.8
17 | C[C@@H](c1ccco1)[C@@H](CO)NS(=O)(=O)c1ccc(Br)s1 [Example 70, 5-bromo-N-[(1S,2R)-2-(2-furyl)-1-(hydroxymethyl)propyl]thiophene-2-sulfonamide] | 4.6
18 | O=[N+]([O-])c1ccc([C@@H](O)[C@@H](CO)NS(=O)(=O)c2ccc(Cl)s2)cc1 [Example 99, 5-chloro-N-[(R,R)-2-hydroxy-1-(hydroxymethyl)-2-(4-nitrophenyl)ethyl]thiophene-2-sulfonamide] | 1.5
19 | CC(C)(CO)NS(=O)(=O)c1ccc(Cl)s1 [Example 92, 5-chloro-N-(2-hydroxy-1,1-dimethylethyl)thiophene-2-sulfonamide] | 1.5
20 | O=S(=O)(NC1(CO)CCCCC1)c1ccc(Cl)s1 [Example 177, 5-Chloro-N-[1-(hydroxymethyl)cyclohexyl]thiophene-2-sulfonamide] | 5.1
21 | O=S(=O)(N[C@H](CO)C1CCNCC1)c1ccc(Cl)s1 [Example 225, 5-Chloro-N-[(S)-2-hydroxy-1-piperidin-4-ylethyl]thiophene-2-sulfonamide] | 8
22 | CC(C)(C)OC(=O)N1CCC([C@@H](CO)NS(=O)(=O)c2ccc(Cl)s2)CC1 [Example 209, 4-[1-(5-Chloro-thiophene-2-sulfonylamino)-2-hydroxy-ethyl]-piperidine-1-carboxylic acid tert-butyl ester] | 2.1
23 | CCC[C@H](c1ccccc1)[C@@H](CO)NS(=O)(=O)c1ccc(Cl)s1 [Example 38, 5-chloro-N-[(1S,2R)-1-(hydroxymethyl)-2-phenylpentyl]thiophene-2-sulfonamide] | 4.1
24 | CNC1CCC([C@@H](CO)NS(=O)(=O)c2ccc(Cl)s2)CC1 (stereo partly drawn) [Example 212, 5-chloro-N-[(S)-2-hydroxy-1-(4-methylaminocyclohexyl)ethyl]thiophene-2-sulfonamide] | 1.7
25 | CCNC1CCC([C@@H](CO)NS(=O)(=O)c2ccc(Cl)s2)CC1 (stereo partly drawn) [Example 213, 5-chloro-N-[(S)-2-hydroxy-1-(4-ethylaminocyclohexyl)ethyl]thiophene-2-sulfonamide] | 1.6
26 | CC[C@@H](c1ccco1)[C@@H](CO)NS(=O)(=O)c1ccc(Br)s1 [Example 71, 5-bromo-N-[(1S,2R)-2-(2-furyl)-1-(hydroxymethyl)butyl]thiophene-2-sulfonamide] | 5.2
27 | CSCC[C@@H](CO)NS(=O)(=O)c1ccc(Br)s1 [Example 111, 5-bromo-N-[(S)-1-(hydroxymethyl)-3-(methylthio)propyl]thiophene-2-sulfonamide] | 1.8
28 | CC(C)C[C@@H](c1ccco1)[C@@H](CO)NS(=O)(=O)c1ccc(Cl)s1 [Example 50, 5-chloro-N-[(1S,2R)-2-(2-furyl)-1-(hydroxymethyl)-4-methylpentyl]thiophene-2-sulfonamide] | 7.7
29 | CCC[C@H](CC)[C@@H](CO)NS(=O)(=O)c1ccc(Br)s1 [Example 60, 5-bromo-N-[(1S,2S)-2-ethyl-1-(hydroxymethyl)pentyl]thiophene-2-sulfonamide] | 6.9
30 | CC[C@H](CC(C)C)[C@@H](CO)NS(=O)(=O)c1ccc(Br)s1 [Example 59, 5-bromo-N-[(1S,2R)-2-ethyl-1-(hydroxymethyl)-4-methylpentyl]thiophene-2-sulfonamide] | 4.5
31 | O=S(=O)(NC1(CO)CCCCC1)c1ccc(Br)s1 [Example 181, 5-bromo-N-[1-(hydroxymethyl)cyclohexyl]thiophene-2-sulfonamide] | 2.6
32 | CCC(CO)(CO)NS(=O)(=O)c1ccc(Br)s1 [Example 108, N-[1,1-bis(hydroxymethyl)propyl]-5-bromothiophene-2-sulfonamide] | 2

— patent publication US6878742B2, “Heterocyclic sulfonamide inhibitors of beta amyloid production” (Wyeth, priority 2000, dated 2005)
